Measurements reported in PubChem BioAssay AID2060509 (Molecular Pharmacology Branch, DTP, NCI, 2025).

Test system: 485176-168-R4-J1-PDC spheroids with HUVEC/MSC, viability
Assay: Anticancer human tumor 485176-168-R4-J1-PDC patient-derived pancreatic adenocarcinoma cell line growth inhibition [GQUAD]
Details: for IC50: curve of first compound; for viability, T/C: stronger effect = lower value
Procedure, shortened: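 Tumor cells were grown as complex spheroids with HUVEC endothelial cells and mesenchymal stem cells as stroma. G-quadruplex stabilizers were combined with targeted agents over half-log dilutions from near the clinical Cmax, or from 10 microM.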

[1] = second compound 0.0316 µM, first compound 0.0316 µM
[2] = second compound 0.0316 µM, first compound 0.1 µM
[3] = second compound 0.0316 µM, first compound 0.316 µM
[4] = second compound 0.0316 µM, first compound 1 µM
[5] = second compound 0.0316 µM, first compound 3.16 µM
[6] = second compound 0.0316 µM, first compound 10 µM
[7] = second compound 0.1 µM, first compound 0.0316 µM
[8] = second compound 0.1 µM, first compound 0.1 µM
[9] = second compound 0.1 µM, first compound 0.316 µM
[10] = second compound 0.1 µM, first compound 1 µM
[11] = second compound 0.1 µM, first compound 3.16 µM
[12] = second compound 0.1 µM, first compound 10 µM
[13] = second compound 0.316 µM, first compound 0.0316 µM
[14] = second compound 0.316 µM, first compound 0.1 µM
[15] = second compound 0.316 µM, first compound 0.316 µM
[16] = second compound 0.316 µM, first compound 1 µM
[17] = second compound 0.316 µM, first compound 3.16 µM
[18] = second compound 0.316 µM, first compound 10 µM
[19] = second compound 1 µM, first compound 0.0316 µM
[20] = second compound 1 µM, first compound 0.1 µM
[21] = second compound 1 µM, first compound 0.316 µM
[22] = second compound 1 µM, first compound 1 µM
[23] = second compound 1 µM, first compound 3.16 µM
[24] = second compound 1 µM, first compound 10 µM
[25] = second compound 3.16 µM, first compound 0.0316 µM
[26] = second compound 3.16 µM, first compound 0.1 µM
[27] = second compound 3.16 µM, first compound 0.316 µM
[28] = second compound 3.16 µM, first compound 1 µM
[29] = second compound 3.16 µM, first compound 3.16 µM
[30] = second compound 3.16 µM, first compound 10 µM
[31] = second compound 10 µM, first compound 0.0316 µM
[32] = second compound 10 µM, first compound 0.1 µM
[33] = second compound 10 µM, first compound 0.316 µM
[34] = second compound 10 µM, first compound 1 µM
[35] = second compound 10 µM, first compound 3.16 µM
[36] = second compound 10 µM, first compound 10 µM
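Note: spheroids exposed to compounds for seven days before readout.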
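Throughout, for viability, T/C: percent viability relative to DMSO vehicle control wells as 100%.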

CCCS(=O)(=O)Nc1ccc(F)c(C(=O)c2c[nH]c3ncc(-c4ccc(Cl)cc4)cc23)c1F + Cc1[nH]c2ccc(F)cc2c1-c1nc2c3cccnc3c3ncccc3c2[nH]1
IC50 (second compound 0.0316 µM): > 10 µM
IC50 (second compound 0.1 µM): > 10 µM
IC50 (second compound 0.316 µM): > 10 µM
IC50 (second compound 1 µM): > 10 µM
IC50 (second compound 3.16 µM): > 10 µM
IC50 (second compound 10 µM): > 10 µM
viability, T/C [1]: 95%
viability, T/C [2]: 93.6%
viability, T/C [3]: 96.1%
viability, T/C [4]: 94.8%
viability, T/C [5]: 116%
viability, T/C [6]: 75.5%
viability, T/C [7]: 84.8%
viability, T/C [8]: 102%
viability, T/C [9]: 87.8%
viability, T/C [10]: 86.1%
viability, T/C [11]: 99.1%
viability, T/C [12]: 71.2%
viability, T/C [13]: 105%
viability, T/C [14]: 86.1%
viability, T/C [15]: 90.7%
viability, T/C [16]: 82.9%
viability, T/C [17]: 80.1%
viability, T/C [18]: 67.2%
viability, T/C [19]: 87.2%
viability, T/C [20]: 85.2%
viability, T/C [21]: 76.7%
viability, T/C [22]: 84.2%
viability, T/C [23]: 77.5%
viability, T/C [24]: 69.5%
viability, T/C [25]: 104%
viability, T/C [26]: 88.6%
viability, T/C [27]: 89%
viability, T/C [28]: 72.1%
viability, T/C [29]: 84%
viability, T/C [30]: 63.5%
viability, T/C [31]: 84.9%
viability, T/C [32]: 91%
viability, T/C [33]: 88.4%
viability, T/C [34]: 74.9%
viability, T/C [35]: 66.6%
viability, T/C [36]: 51.7%

COc1cccc2c1C(=O)c1c(O)c3c(c(O)c1C2=O)CC(O)(C(=O)CO)CC3OC1CC(N)C(O)C(C)O1 (stereo unspecified) + Cc1cnc(CNC(=O)c2c(=O)c3ccc(N4CCCN(C)CC4)nc3n3c2sc2ccccc23)cn1
IC50 (second compound 0.0316 µM): 0.398 µM
IC50 (second compound 0.1 µM): 0.141 µM
IC50 (second compound 0.316 µM): 0.196 µM
IC50 (second compound 1 µM): < 0.0316 µM
IC50 (second compound 3.16 µM): < 0.0316 µM
IC50 (second compound 10 µM): < 0.0316 µM
viability, T/C [1]: 81.3%
viability, T/C [2]: 60.9%
viability, T/C [3]: 60.5%
viability, T/C [4]: 13.4%
viability, T/C [5]: 3.49%
viability, T/C [6]: 0.42%
viability, T/C [7]: 80.5%
viability, T/C [8]: 55.9%
viability, T/C [9]: 34.5%
viability, T/C [10]: 20.1%
viability, T/C [11]: 1.67%
viability, T/C [12]: 0.88%
viability, T/C [13]: 55.8%
viability, T/C [14]: 50.8%
viability, T/C [15]: 48.7%
viability, T/C [16]: 18.6%
viability, T/C [17]: 6.39%
viability, T/C [18]: 0.16%
viability, T/C [19]: 54.5%
viability, T/C [20]: 41%
viability, T/C [21]: 51.7%
viability, T/C [22]: 28.2%
viability, T/C [23]: 8.43%
viability, T/C [24]: 0.95%
viability, T/C [25]: 41.6%
viability, T/C [26]: 40.2%
viability, T/C [27]: 44.5%
viability, T/C [28]: 28.1%
viability, T/C [29]: 7.56%
viability, T/C [30]: 0.84%
viability, T/C [31]: 49.8%
viability, T/C [32]: 39.7%
viability, T/C [33]: 44.6%
viability, T/C [34]: 30.4%
viability, T/C [35]: 7.78%
viability, T/C [36]: 1.08%

CC(C)n1c(=O)n(C)c2cnc3cc(F)c(-c4ccc(OCCCN5CCCCC5)nc4)cc3c21 + Cc1[nH]c2ccc(F)cc2c1-c1nc2c3cccnc3c3ncccc3c2[nH]1
IC50 (second compound 0.0316 µM): > 10 µM
IC50 (second compound 0.1 µM): > 10 µM
IC50 (second compound 0.316 µM): > 10 µM
IC50 (second compound 1 µM): > 10 µM
IC50 (second compound 3.16 µM): > 10 µM
IC50 (second compound 10 µM): > 10 µM
viability, T/C [1]: 106%
viability, T/C [2]: 78.3%
viability, T/C [3]: 89.2%
viability, T/C [4]: 87.8%
viability, T/C [5]: 85.1%
viability, T/C [6]: 71.2%
viability, T/C [7]: 82.6%
viability, T/C [8]: 103%
viability, T/C [9]: 77.7%
viability, T/C [10]: 95.6%
viability, T/C [11]: 93.8%
viability, T/C [12]: 99.2%
viability, T/C [13]: 92%
viability, T/C [14]: 82.8%
viability, T/C [15]: 91.1%
viability, T/C [16]: 88.7%
viability, T/C [17]: 80.4%
viability, T/C [18]: 85.2%
viability, T/C [19]: 80.8%
viability, T/C [20]: 89.6%
viability, T/C [21]: 81.7%
viability, T/C [22]: 84.3%
viability, T/C [23]: 99.3%
viability, T/C [24]: 77.2%
viability, T/C [25]: 89.2%
viability, T/C [26]: 82.4%
viability, T/C [27]: 84.4%
viability, T/C [28]: 85%
viability, T/C [29]: 76.8%
viability, T/C [30]: 64%
viability, T/C [31]: 79.1%
viability, T/C [32]: 78.8%
viability, T/C [33]: 87.4%
viability, T/C [34]: 76.5%
viability, T/C [35]: 86%
viability, T/C [36]: 64.6%
